Assay results as given in PMC11649037, “Monitoring conformational changes in the human neurotransmitter transporter homologue LeuT with ^19F‐NMR spectroscopy” (Journal of Neurochemistry, 2024).

Target: T1, LeuT (Leucine Transporter) (Aquifex aeolicus, UniProt O67854, K398C)
T1 construct: gene snf; LeuT K398C labelled with BTFA, in DDM micelles
Assay: 1D […]-NMR, […] L-ala with […] Na+ (shift to outward-facing closed state)
Format: binding

C[C@H](N)C(=O)O [Alanine]
1D 19F-NMR, 4 mM L-ala with 200 mM Na+ (shift to outward-facing closed state): Alanine/Na^+ K398C‐BTFA LeuT (Figure 2e) and Phenylalanine/Na^+ K398C‐BTFA LeuT (Figure 2f) which show a similar shift toward S1 resonance
